Experimental data published in EP0326490B2, “Synthetic peptides and mixtures thereof for detecting HIV antibodies” (ADALTIS INC., priority 1988, dated 2004).
Positions of bridges follow the written chain, without caps; N, C: chain ends. Residues, ends and D or L forms follow the SMILES beside them.

Experiments:
[1] = system: HIV-1 positive sera; test: ELISA, single peptides identifying HIV-1 positive sera; type: binding, human; details: single gp41 or gp120 peptide
Description: (§1) According to this test a peptide or a peptide mixture of the present invention is adsorbed onto the wells of a microtiter plate. The wells are then treated with sera to be tested. After washing, anti-human IgG labeled with peroxidase is added to the wells. The determination of the peroxidase is performed with a corresponding substrate, e.g. with o-phenylene diamine. Also in this procedure the peroxidase can be exchanged by another label, e.g. by a radioactive or fluorescence label.
(§2) Each well of the microtiter plate is saturated with 100 µl of a solution containing a peptide or mixture of peptides (5 µg/ml) and left overnight. The wells are emptied and washed twice with a washing buffer (Tris, 0.043M; NaCl, 0.5M;thimerosal, 0.01% w/v; Tween 20, 0.05% v/v; pH 7.4). The wells are then saturated with […] of washing buffer for 1 hr. at 37°C and washed once with the same buffer. Serum samples to be analyzed are diluted with specimen buffer (washing buffer plus casein, 0.05% w/v). The bells are rinsed with washing buffer prior to the addition of the diluted serum sample (0.1 ml). These are left to incubate for 1 hr. at room temperature. The wells are then emptied, washed twice rapidly and then once for two minutes with washing buffer. […] The wells are then emptied and washed twice rapidly with washing buffer and then five times in which the buffer was in contact with the well 2 minutes per washing. The substrate solution (3,3', 5,5'-tetramethylbenzidine, 8 mg per ml of DMSO) is diluted with 100 volumes 0.1 M citrate-acetate buffer, pH 5.6 containing 0.1% v/v of 30% H2O2 and added to each well (0.1 ml per well). After 10 minutes the contents of each well is treated with 0.1 ml 2N H2SO4 and the optical density read at 450 nm. All determinations are done in duplicate.

[2] = system: HIV-1-antibodies; test: ELISA optical density of serially diluted sera, cyclic versus non-cyclic peptides; type: binding, human; details: coated at 0.5 µg/ml
Text: TABLE 5 is provided to illustrate the sensitivity of cyclic versus non-cyclic peptides in the ELISA test by comparing the results of some sera at various dilutions.
Even though results presented in TABLE 5 clearly show the superiority of cyclic peptides over their linear counterpart in detecting HIV-1-antibodies, that increased sensitivity could have been underestimated because of probable cyclization and polymerization of the linear peptide after solubilization in a carbonate buffer (pH 9.6). That experiment was repeated with the linear 87 and cyclic 87c peptides dissolved in a carbonate buffer (pH 9.6) as before and also in 10% acetic acid (pH 2.7). […] It is believed that cyclization and polymerization also occured in the wells of the microtiter plates although the exact proportion of cyclic peptide bound to the plates versus linear has not been as yet determined. […]
as §2

[3] = system: HIV-1 positive serum samples; test: ELISA serum titers on plates coated with cyclic versus linear peptide; type: binding, human; details: for serum titer (serum dilution giving an absorbancy reading of 1.0): coated at 10 µg/ml
Text: (§3) Even though results presented in TABLE 5 clearly show the superiority of cyclic peptides over their linear counterpart in detecting HIV-1-antibodies, that increased sensitivity could have been underestimated because of probable cyclization and polymerization of the linear peptide after solubilization in a carbonate buffer (pH 9.6). That experiment was repeated with the linear 87 and cyclic 87c peptides dissolved in a carbonate buffer (pH 9.6) as before and also in 10% acetic acid (pH 2.7). […] It is believed that cyclization and polymerization also occured in the wells of the microtiter plates although the exact proportion of cyclic peptide bound to the plates versus linear has not been as yet determined.
Plates used in this experiment were coated with solutions of peptides at 10 µg/ml. (Experimental results of TABLE 5 were obtained with plates coated with peptides at 0.5 µg/ml). Four different HIV-1 positive serum samples were serially diluted and their titers determined. The titer was defined as the serum dilution giving an absorbancy reading of 1.0 in the conditions of the ELISA procedure already described.
The ratios of sensitivities measured with the cyclic peptide over the linear 87 peptide vary between 1.3 and 2.2 with an average of 1.8. These ratios are even larger, varying from 3.0 to 4.5, when the sensitivity of the ELISA test using the cyclic 87c peptide is compared using conditions (acidic pH) where the linear 87 peptide remains linear and is not allowed to cyclize or polymerize.
as §2

[4] = Stability of linear and cyclic peptide in coating buffers (HPLC, Ellman's test); type: physicochemical; details: 10% acetic acid (pH 2.7)
Text: as §3

[5] = system: HIV-2 positive sera; test: ELISA, single peptides identifying HIV-2 positive sera; type: binding, human; details: single peptide
Description: as §1, with “A preferred convenient and classical technique for the determination of antibodies against AIDS virus using a peptide or a peptide mixture of the present invention is an enzyme-linked immunosorbent assay (ELISA). According” for “According”, “label. […]” for “label.”
TABLE 4 provides the results of single peptides which were individually evaluated in identifying known HIV-2 positive sera.
Each well of the microtiter plate is saturated with 100 µl of a solution containing a peptide or mixture of peptides (5 µg/ml) and left overnight. […] Serum samples to be analyzed are diluted with specimen buffer (washing buffer plus casein, 0.05% w/v). […] After 10 minutes the contents of each well is treated with 0.1 ml 2N H2SO4 and the optical density read at 450 nm. […]

Compound: CC[C@H](C)[C@H](NC(=O)CNC(=O)[C@H](CC(C)C)NC(=O)[C@H](CC(C)C)NC(=O)[C@H](CCC(N)=O)NC(=O)[C@H](CCC(N)=O)NC(=O)[C@H](CC(=O)O)NC(=O)[C@H](CCCCN)NC(=O)[C@H](CC(C)C)NC(=O)[C@H](Cc1ccc(O)cc1)NC(=O)[C@H](CCCNC(=N)N)NC(=O)[C@H](CCC(=O)O)NC(=O)[C@@H](NC(=O)[C@H](C)NC(=O)[C@H](CC(C)C)NC(=O)[C@@H](NC(=O)[C@@H](N)CCCNC(=N)N)[C@@H](C)CC)C(C)C)C(=O)N[C@@H](Cc1c[nH]c2ccccc12)C(=O)NCC(=O)N[C@H]1CSSC[C@@H](C(=O)N[C@H](C(=O)N[C@H](C(=O)N[C@@H](C)C(=O)N[C@H](C(=O)N2CCC[C@H]2C(=O)N[C@@H](Cc2c[nH]c3ccccc23)C(=O)N[C@@H](CC(N)=O)C(=O)N[C@@H](C)C(=O)N[C@@H](CO)C(=O)O)C(C)C)[C@@H](C)O)[C@@H](C)O)NC(=O)[C@H]([C@@H](C)CC)NC(=O)[C@H](CC(C)C)NC(=O)[C@H](CCCCN)NC(=O)CNC(=O)[C@H](CO)NC1=O [Peptide 87c] (H-RILAVERYLKDQQLLGIWGCSGKLICTTAVPWNAS-OH; disulfide 20-26)
- % Positive Sera correctly Idenfitied [1]: 99%
- Relative performance in ELISA (optical density) ([2]; serum 87V103, dilution 1/50): 0.011 optical density units
- Relative performance in ELISA (optical density) ([2]; serum 1428, dilution 1/50): >2.0 optical density units
- Relative performance in ELISA (optical density) ([2]; serum M-5, dilution 1 50): >2.0 optical density units
- Relative performance in ELISA (optical density) ([2]; serum M-5, dilution 1/100): >2.0 optical density units
- Relative performance in ELISA (optical density) ([2]; serum M-5, dilution 1/200): >2.0 optical density units
- Relative performance in ELISA (optical density) ([2]; serum M-5, dilution 1/400): >2.0 optical density units
- Relative performance in ELISA (optical density) ([2]; serum M-5, dilution 1/800): 1.854 optical density units
- Relative performance in ELISA (optical density) ([2]; serum M-7, dilution 1/50): >2.0 optical density units
- Relative performance in ELISA (optical density) ([2]; serum M-7, dilution 1/100): >2.0 optical density units
- Relative performance in ELISA (optical density) ([2]; serum M-7, dilution 1/200): 1.729 optical density units
- Relative performance in ELISA (optical density) ([2]; serum M-7, dilution 1/400): 1.348 optical density units
- Relative performance in ELISA (optical density) ([2]; serum M-7, dilution 1/800): 0.611 optical density units
- Relative performance in ELISA (optical density) ([2]; serum M-8, dilution 1/50): >2.0 optical density units
- Relative performance in ELISA (optical density) ([2]; serum M-8, dilution 1/100): >2.0 optical density units
- Relative performance in ELISA (optical density) ([2]; serum M-8, dilution 1/200): 1.655 optical density units
- Relative performance in ELISA (optical density) ([2]; serum M-8, dilution 1/400): 1.064 optical density units
- Relative performance in ELISA (optical density) ([2]; serum M-8, dilution 1/800): 0.384 optical density units
- Relative performance in ELISA (optical density) ([2]; serum M-16, dilution 1/50): >2.0 optical density units
- Relative performance in ELISA (optical density) ([2]; serum M-16, dilution 1/100): >2.0 optical density units
- Relative performance in ELISA (optical density) ([2]; serum M-16, dilution 1/200): >2.0 optical density units
- Relative performance in ELISA (optical density) ([2]; serum M-16, dilution 1/400): >2.0 optical density units
- Relative performance in ELISA (optical density) ([2]; serum M-16, dilution 1/800): 1.962 optical density units
- A B (titer 87c cyclic over titer 87 linear) ([3]; 10% Acetic Acid (pH 2.7), serum M-5): 3.0
- A B (titer 87c cyclic over titer 87 linear) ([3]; 10% Acetic Acid (pH 2.7), serum M-7): 3.9
- A B (titer 87c cyclic over titer 87 linear) ([3]; 10% Acetic Acid (pH 2.7), serum M-8): 4.5
- A B (titer 87c cyclic over titer 87 linear) ([3]; 10% Acetic Acid (pH 2.7), serum M-16): 3.7
- A B (titer 87c cyclic over titer 87 linear) ([3]; Carbonate Bicarbonate 0.1M (pH 9.6), serum M-5): 1.3
- A B (titer 87c cyclic over titer 87 linear) ([3]; Carbonate Bicarbonate 0.1M (pH 9.6), serum M-7): 1.8
- A B (titer 87c cyclic over titer 87 linear) ([3]; Carbonate Bicarbonate 0.1M (pH 9.6), serum M-8): 2.2
- A B (titer 87c cyclic over titer 87 linear) ([3]; Carbonate Bicarbonate 0.1M (pH 9.6), serum M-16): 1.7
- ratios of sensitivities measured with the cyclic peptide over the linear 87 peptide, average ([3]; carbonate buffer (pH 9.6), average over four sera): 1.8
- serum titer (serum dilution giving an absorbancy reading of 1.0) ([3]; coating buffer 10% Acetic Acid (pH 2.7), serum M-5): 13 500
- serum titer (serum dilution giving an absorbancy reading of 1.0) ([3]; coating buffer 10% Acetic Acid (pH 2.7), serum M-7): 9 000
- serum titer (serum dilution giving an absorbancy reading of 1.0) ([3]; coating buffer 10% Acetic Acid (pH 2.7), serum M-8): 6 300
- serum titer (serum dilution giving an absorbancy reading of 1.0) ([3]; coating buffer 10% Acetic Acid (pH 2.7), serum M-16): 56 000
- serum titer (serum dilution giving an absorbancy reading of 1.0) ([3]; coating buffer Carbonate Bicarbonate 0.1M (pH 9.6), serum M-5): 13 500
- serum titer (serum dilution giving an absorbancy reading of 1.0) ([3]; coating buffer Carbonate Bicarbonate 0.1M (pH 9.6), serum M-7): 11 000
- serum titer (serum dilution giving an absorbancy reading of 1.0) ([3]; coating buffer Carbonate Bicarbonate 0.1M (pH 9.6), serum M-8): 6500
- serum titer (serum dilution giving an absorbancy reading of 1.0) ([3]; coating buffer Carbonate Bicarbonate 0.1M (pH 9.6), serum M-16): 56 000
- stability in solution (HPLC, Ellman's test) [4]: remained cyclic

Compound: CC[C@H](C)[C@H](NC(=O)[C@H](CCC(=O)O)NC(=O)[C@@H](NC(=O)[C@@H](N)CC(C)C)C(C)C)C(=O)N[C@H](C(=O)N1CCC[C@H]1C(=O)N[C@H](C(=O)NCC(=O)N[C@@H](Cc1ccccc1)C(=O)N[C@@H](C)C(=O)N1CCC[C@H]1C(=O)N[C@H](C(=O)N[C@@H](CCCCN)C(=O)N[C@@H](CCC(=O)O)C(=O)N[C@@H](CCCCN)C(=O)N[C@@H](CCCNC(=N)N)C(=O)N[C@@H](Cc1ccc(O)cc1)C(=O)N[C@@H](CO)C(=O)N[C@@H](CO)C(=O)N[C@@H](C)C(=O)N[C@@H](Cc1c[nH]cn1)C(=O)NCC(=O)N[C@@H](CCCNC(=N)N)C(=O)O)[C@@H](C)O)[C@@H](C)CC)[C@@H](C)O [Peptide 203]
- %Positive sera correctly Identified [5]: 100%

Compound: CC[C@H](C)[C@H](NC(=O)[C@H](CCC(=O)O)NC(=O)[C@@H](NC(=O)[C@@H](N)CC(C)C)C(C)C)C(=O)N[C@H](C(=O)N1CCC[C@H]1C(=O)N[C@H](C(=O)NCC(=O)N[C@@H](Cc1ccccc1)C(=O)N[C@@H](C)C(=O)N1CCC[C@H]1C(=O)N[C@H](C(=O)N[C@@H](CCCCN)C(=O)N[C@@H](CCC(=O)O)C(=O)N[C@@H](CCCCN)C(=O)N[C@@H](CCCNC(=N)N)C(=O)O)[C@@H](C)O)[C@@H](C)CC)[C@@H](C)O [Peptide 204]
- %Positive sera correctly Identified [5]: 100%
